PubChem BioAssay AID2060599 (Molecular Pharmacology Branch, DTP, NCI, 2025)
Where “and” joins values, the source holds several entries; their conditions need not be identical. Equal entries are not always repeated. Each block holds one compound with its values, some of them ahead of it.

Test system: 817829-284-R-J1-PDC complex spheroids, viability
Assay: Anticancer human tumor 817829-284-R-J1-PDC patient-derived colon adenocarcinoma cell line growth inhibition [CLK]
Settings: for viability, T/C: stronger effect = lower value
Text: A high-throughput screen of multi-cell type tumor spheroids was designed to identify active combinations of […] and targeted small molecules. Complex spheroids include a stromal component modeled by human endothelial cells (HUVEC) and fibroblasts modeled by human mesenchymal stem cells (MSCs). The concentration ranges selected for each drug and investigational agent were based upon clinically achievable concentrations if the clinical Cmax of the agent was known.
Compounds. The drugs and investigational agents: cirtuvivint (SM08502; NSC835563), CC-671 (NSC850746), vemurafenib (NSC761431), tapotoclax (NSC804041), sotorasib (NSC818433), adagrasib (NSC831453), MRTX-1133 (NSC836407), BAY2416964 (NSC825713), copanlisib (NSC816437), inavolisib (NSC800729), abemaciclib (NSC768073), osimertinib (NSC779217), entinostat (NSC756642), eltanexor (KPT-8602, NSC794443), venetoclax (NSC766270), ceralasertib (NSC777638), bortezomib (NSC756655), olaparib (NSC753686), talazoparib (NSC767125), alisertib (NSC759677), peposertib (NSC802822), gemcitabine (NSC613327), 5-fluorouracil (NSC19893), SN-38 (NSC673596), oxaliplatin (NSC266046), paclitaxel (NSC125973), and doxorubicin (NSC123127), were obtained from the National Cancer Institute (NCI) Developmental Therapeutics Program Chemical Repository. The FDA-approved anticancer drug set is available from the Developmental Therapeutics Program at https://dtp.cancer.gov/organization/dscb/obtaining/available plates.htm. […] The stock solutions were prepared in dimethyl sulfoxide (DMSO, Sigma-Aldrich, St. Louis, MO, cat. D2650), except for the platinum complexes which were prepared in saline (Quality Biological, Gaithersburg, MD, cat. 114-055-101), at 800-fold the tested concentration and stored at -70 degrees C prior to their use. All drugs and investigational agents were tested over a range starting from a high concentration at or near the clinical Cmax and decreasing in half-log increments. If the clinical Cmax for an agent had not been determined, the highest concentration tested was 10 microM.
Cell Culture. All cells were maintained in an incubator at 37 degrees C and 5% CO2 with 95% humidity. The PDC lines were cultured according to standard operating procedures established by the NCI PDMR. Briefly, all PDCs were thawed and cultured in Matrigel-coated flasks prepared with a working solution of 1X Ham's F-12 nutrient mix, without supplementation (Invitrogen, Waltham, MA, cat. 11765054), 100 U/mL penicillin-streptomycin (Invitrogen, cat. 15140122), and 2.5% Matrigel (Corning Inc., Corning, NY, cat. 354248) for the first three passages. The 947758-054-R-J2-PDC line was cultured in 6B/Colon 1A media, which includes advanced DMEM/F-12 (Thermo Fisher Scientific, cat. 12634028), 10 mM HEPES (Thermo Fisher Scientific, cat. 15630080), 1X GlutaMAX supplement (Thermo Fisher Scientific, cat. 35050061), 0.1 mg/mL primocin (InvivoGen, cat. ant-pm-2), 10% defined fetal bovine serum, heat inactivated (HyClone Laboratories Inc., cat. SH30070.03HI), 1.25 mM N-Acetyl-L-cysteine (Sigma-Aldrich, cat. A9165), 10 mM nicotinamide (Sigma-Aldrich, cat. N0636), 1X B-27 supplement (Thermo Fisher Scientific, cat. 17504044), 1X N-2 supplement (Thermo Fisher Scientific, cat. 17502048), and 10 microM Y-27632 dihydrochloride (Tocris Bioscience, cat. 1254). The 876862-298-R-J1-PDC was cultured in 6E media, which includes all 6B/Colon 1A media components plus 50% L-WRN conditioned media (ATCC, cat. CRL-3276), 50 ng/mL recombinant human EGF recombinant protein (hEGF; Thermo Fisher Scientific, cat. PHG0311), 10 ng/mL recombinant human fibroblast growth factor 10 (hGFG-10; PeproTech, cat. 100-26), 1 ng/mL recombinant human fibroblast growth factor 2 (hFGF-2; PeproTech, cat. 100-18B), and 1 µM prostaglandin E2 (PGE2; Tocris, cat. 2296). The 227483-062-R1-J1-PDC line was cultured in Panc media, containing all 6E components except hFGF-2, with the addition of 500 nM SB-431542 (Selleckchem, cat. S1067) and 10 nM gastrin (Tocris, cat. 3006). […]

[1] = curve of first compound, second compound 0.0316 µM
[2] = curve of first compound, second compound 0.1 µM
[3] = curve of first compound, second compound 0.316 µM
[4] = curve of first compound, second compound 1 µM
[5] = curve of first compound, second compound 3.16 µM
[6] = curve of first compound, second compound 10 µM
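Also: spheroids exposed to the agents for seven days before readout.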

SMILES: NC(=O)C(=Cn1cnc(-c2cc(C(F)(F)F)cc(C(F)(F)F)c2)n1)c1cncnc1 + CN1CCN(c2cc(C(=O)Nc3cc4cc(-c5cnn(C)c5)ccc4cn3)ccn2)CC1
- IC50 [1]: < 9.49 nM
- IC50 [2]: < 9.49 nM
- IC50 [3]: < 9.49 nM
- IC50 [4]: < 9.49 nM
- IC50 [5]: < 9.49 nM
- IC50 [6]: < 9.49 nM
- viability, T/C (second compound 0.0316 µM, first compound 0.00949 µM): 21.1%
- viability, T/C (second compound 0.0316 µM, first compound 0.03 µM): 19.4%
- viability, T/C (second compound 0.0316 µM, first compound 0.0949 µM): 8.87%
- viability, T/C (second compound 0.0316 µM, first compound 0.3 µM): 2.37%
- viability, T/C (second compound 0.0316 µM, first compound 0.949 µM): 1.3%
- viability, T/C (second compound 0.0316 µM, first compound 3 µM): 0.87%
- viability, T/C (second compound 0.1 µM, first compound 0.00949 µM): 7.2%
- viability, T/C (second compound 0.1 µM, first compound 0.03 µM): 4.72%
- viability, T/C (second compound 0.1 µM, first compound 0.0949 µM): 1.8%
- viability, T/C (second compound 0.1 µM, first compound 0.3 µM): 0.15%
- viability, T/C (second compound 0.1 µM, first compound 0.949 µM): 0.19%
- viability, T/C (second compound 0.1 µM, first compound 3 µM): 0.22%
- viability, T/C (second compound 0.316 µM, first compound 0.00949 µM): 0.46%
- viability, T/C (second compound 0.316 µM, first compound 0.03 µM): 0.1%
- viability, T/C (second compound 0.316 µM, first compound 0.0949 µM): 0.07%
- viability, T/C (second compound 0.316 µM, first compound 0.3 µM): 0.05%
- viability, T/C (second compound 0.316 µM, first compound 0.949 µM): 0.06%
- viability, T/C (second compound 0.316 µM, first compound 3 µM): 0.17%
- viability, T/C (second compound 1 µM, first compound 0.00949 µM): 0.06%
- viability, T/C (second compound 1 µM, first compound 0.03 µM): 0.09%
- viability, T/C (second compound 1 µM, first compound 0.0949 µM): 0.13%
- viability, T/C (second compound 1 µM, first compound 0.3 µM): 0.1%
- viability, T/C (second compound 1 µM, first compound 0.949 µM): 0.12%
- viability, T/C (second compound 1 µM, first compound 3 µM): 0.29%
- viability, T/C (second compound 3.16 µM, first compound 0.00949 µM): 0.06%
- viability, T/C (second compound 3.16 µM, first compound 0.03 µM): 0.16%
- viability, T/C (second compound 3.16 µM, first compound 0.0949 µM): 0.19%
- viability, T/C (second compound 3.16 µM, first compound 0.3 µM): 0.12%
- viability, T/C (second compound 3.16 µM, first compound 0.949 µM): 0.17%
- viability, T/C (second compound 3.16 µM, first compound 3 µM): 0.21%
- viability, T/C (second compound 10 µM, first compound 0.00949 µM): 0.02%
- viability, T/C (second compound 10 µM, first compound 0.03 µM): 0.09%
- viability, T/C (second compound 10 µM, first compound 0.0949 µM): 0.13%
- viability, T/C (second compound 10 µM, first compound 0.3 µM): 0.1%
- viability, T/C (second compound 10 µM, first compound 0.949 µM): 0.17%
- viability, T/C (second compound 10 µM, first compound 3 µM): 0.11%

- IC50 (curve of compound): 11.9 nM and 24.8 nM
SMILES: COc1c(OCCCN2CCOCC2)ccc2c3n(c(=NC(=O)c4cnc(N)nc4)nc12)CCN3
- viability, T/C (compound 0.00316 µM): 96% and 133%
- viability, T/C (compound 0.01 µM): 52% and 68.5%
- viability, T/C (compound 0.0316 µM): 29% and 55.5%
- viability, T/C (compound 0.1 µM): 18.8% and 16.3%
- viability, T/C (compound 0.316 µM): 7.17% and 4.92%
- viability, T/C (compound 1 µM): 2.06% and 2.01%

- IC50 (curve of compound): > 300 nM
SMILES: C=CC(=O)Nc1cc(Nc2nccc(-c3cn(C)c4ccccc34)n2)c(OC)cc1N(C)CCN(C)C
- viability, T/C (compound 0.000949 µM): 108%
- viability, T/C (compound 0.003 µM): 101%
- viability, T/C (compound 0.00949 µM): 85.9%
- viability, T/C (compound 0.03 µM): 72.9%
- viability, T/C (compound 0.0949 µM): 99.5%
- viability, T/C (compound 0.3 µM): 73.8%

SMILES: COc1c(OCCCN2CCOCC2)ccc2c3n(c(=NC(=O)c4cnc(N)nc4)nc12)CCN3 + CN1CCN(c2cc(C(=O)Nc3cc4cc(-c5cnn(C)c5)ccc4cn3)ccn2)CC1
- IC50 [1]: 8.9 nM
- IC50 [2]: < 3.16 nM
- IC50 [3]: < 3.16 nM
- IC50 [4]: < 3.16 nM
- IC50 [5]: < 3.16 nM
- IC50 [6]: < 3.16 nM
- viability, T/C (second compound 0.0316 µM, first compound 0.00316 µM): 52.3%
- viability, T/C (second compound 0.0316 µM, first compound 0.01 µM): 51.3%
- viability, T/C (second compound 0.0316 µM, first compound 0.0316 µM): 33.9%
- viability, T/C (second compound 0.0316 µM, first compound 0.1 µM): 13.7%
- viability, T/C (second compound 0.0316 µM, first compound 0.316 µM): 3.82%
- viability, T/C (second compound 0.0316 µM, first compound 1 µM): 1.54%
- viability, T/C (second compound 0.1 µM, first compound 0.00316 µM): 20.9%
- viability, T/C (second compound 0.1 µM, first compound 0.01 µM): 17.7%
- viability, T/C (second compound 0.1 µM, first compound 0.0316 µM): 11.5%
- viability, T/C (second compound 0.1 µM, first compound 0.1 µM): 6.91%
- viability, T/C (second compound 0.1 µM, first compound 0.316 µM): 1.95%
- viability, T/C (second compound 0.1 µM, first compound 1 µM): 1.19%
- viability, T/C (second compound 0.316 µM, first compound 0.00316 µM): 1.52%
- viability, T/C (second compound 0.316 µM, first compound 0.01 µM): 1.2%
- viability, T/C (second compound 0.316 µM, first compound 0.0316 µM): 0.85%
- viability, T/C (second compound 0.316 µM, first compound 0.1 µM): 0.73%
- viability, T/C (second compound 0.316 µM, first compound 0.316 µM): 0.56%
- viability, T/C (second compound 0.316 µM, first compound 1 µM): 0.47%
- viability, T/C (second compound 1 µM, first compound 0.00316 µM): 0.08%
- viability, T/C (second compound 1 µM, first compound 0.01 µM): 0.11%
- viability, T/C (second compound 1 µM, first compound 0.0316 µM): 0.12%
- viability, T/C (second compound 1 µM, first compound 0.1 µM): 0.12%
- viability, T/C (second compound 1 µM, first compound 0.316 µM): 0.11%
- viability, T/C (second compound 1 µM, first compound 1 µM): 0.34%
- viability, T/C (second compound 3.16 µM, first compound 0.00316 µM): 0.17%
- viability, T/C (second compound 3.16 µM, first compound 0.01 µM): 0.13%
- viability, T/C (second compound 3.16 µM, first compound 0.0316 µM): 0.13%
- viability, T/C (second compound 3.16 µM, first compound 0.1 µM): 0.09%
- viability, T/C (second compound 3.16 µM, first compound 0.316 µM): 0.17%
- viability, T/C (second compound 3.16 µM, first compound 1 µM): 0.17%
- viability, T/C (second compound 10 µM, first compound 0.00316 µM): 0.03%
- viability, T/C (second compound 10 µM, first compound 0.01 µM): 0.06%
- viability, T/C (second compound 10 µM, first compound 0.0316 µM): 0.1%
- viability, T/C (second compound 10 µM, first compound 0.1 µM): 0.56%
- viability, T/C (second compound 10 µM, first compound 0.316 µM): 0.13%
- viability, T/C (second compound 10 µM, first compound 1 µM): 0.12%
